Laboratory results as given in ChEMBL document CHEMBL1151638, “Hippamine, a Minor Alkaloid From Sternbergia lutea” (1984).

Test system: Solanum tuberosum
Test: Inhibition of ascorbic acid biosynthesis in potato tuber at 20 uM
Assay type: functional

CO[C@H]1C=C2CCN3Cc4cc5c(cc4[C@H]([C@@H]1O)[C@@H]23)OCO5 [HIPPPAMINE]
inhibition at 20 µM: 58%

O[C@H]1[C@H]2c3cc4c(cc3CN3CCC(=C[C@@H]1O)[C@H]23)OCO4 [LYCORINE]
inhibition at 20 µM: 80%
